Calls of active or inactive are those of the source. The calls are words filed in the database; no cut-off is given here.
Experiments:
L6 [1] = test: Induction of mitochondrial uncoupling in rat L6 cells assessed as oxygen consumption rate measured after 45 to 90 mins by seahorse XFe96 analyser based assay relative to control; conditions: Mitochondria
L6 [2] = test: Induction of mitochondrial uncoupling in rat L6 cells assessed as oxygen consumption rate at 0.01 to 50 uM measured after 45 to 90 mins by seahorse XFe96 analyser based assay; conditions: Mitochondria
[3] = Induction of mitochondrial uncoupling in rat L6 cells assessed as oxygen consumption rate measured after 45 to 90 mins by seahorse XFe96 analyser based assay; format: mitochondria, Mitochondria

Emax (L6 [1]) [%] | Activity (L6 [2]) | EC50 [3] [µM] | SMILES
107 | inactive |  | FC(F)(F)Oc1ccc(Nc2cncc(Nc3ccc(OC(F)(F)F)cc3)n2)cc1
258 |  | 5.9 | FC(F)(F)Oc1ccc(Nc2nccnc2Nc2ccc(OC(F)(F)F)cc2)cc1
107 | inactive |  | FC(F)(F)c1ccc(Nc2cnc(Nc3ccc(C(F)(F)F)cc3)cn2)cc1
343 |  | 12 | FC(F)(F)Oc1cccc(Nc2nccnc2Nc2cccc(OC(F)(F)F)c2)c1
105 | inactive |  | FC(F)(F)Oc1cccc(Nc2cncc(Nc3cccc(OC(F)(F)F)c3)n2)c1
140 | inactive |  | FC(F)(F)c1cccc(Nc2cnc(Nc3cccc(C(F)(F)F)c3)cn2)c1
181 |  | 3 | FC(F)(F)c1cccc(Nc2nccnc2Nc2cccc(C(F)(F)F)c2)c1
101 | inactive |  | FC(F)(F)Oc1cccc(Nc2cnc(Nc3cccc(OC(F)(F)F)c3)cn2)c1
102 | inactive |  | FC(F)(F)Oc1ccc(Nc2cnc(Nc3ccc(OC(F)(F)F)cc3)cn2)cc1

Second part, the compound before the results:

SMILES | Emax (L6 [1]) [%] | Activity (L6 [2]) | EC50 [3] [µM]
FC(F)(F)c1ccccc1Nc1nccnc1Nc1ccccc1C(F)(F)F | 104 |  | 
Fc1ccc(Nc2nccnc2Nc2ccc(F)cc2)cc1 | 101 | inactive | 
Fc1ccc(Nc2nccnc2Nc2ccc(F)cc2F)c(F)c1 | 109 | inactive | 
FC(F)(F)c1cc(Nc2nccnc2Nc2cc(C(F)(F)F)cc(C(F)(F)F)c2)cc(C(F)(F)F)c1 | 148 |  | 17
Fc1ccccc1Nc1nc(Nc2ccccc2F)nc(Nc2ccccc2F)n1 | 102 | inactive | 
FC(F)(F)c1ccc(Nc2nccnc2Nc2ccc(C(F)(F)F)cc2)cc1 | 260 |  | 2.5
FC(F)(F)Oc1ccccc1Nc1nccnc1Nc1ccccc1OC(F)(F)F | 114 | inactive | 
COc1ccc(Nc2nc(Nc3ccc(OC)cc3)nc(Nc3ccc(OC)cc3)n2)cc1 | 104 | inactive | 
COc1cccc(Nc2nc(Nc3cccc(OC)c3)nc(Nc3cccc(OC)c3)n2)c1 | 103 | inactive | 
FC(F)(F)c1cc(Nc2cncc(Nc3cc(C(F)(F)F)cc(C(F)(F)F)c3)n2)cc(C(F)(F)F)c1 | 105 | inactive | 
COc1ccccc1Nc1nc(Nc2ccccc2OC)nc(Nc2ccccc2OC)n1 | 103 | inactive | 
FC(F)(F)c1ccc(Nc2cncc(Nc3ccc(C(F)(F)F)cc3)n2)cc1 | 103 | inactive | 
Fc1cccc(Nc2nccnc2Nc2cccc(F)c2F)c1F | 108 | inactive | 
Fc1ccc(C(F)(F)F)cc1Nc1nccnc1Nc1cc(C(F)(F)F)ccc1F | 100 |  | 
COc1ccccc1Nc1nccnc1Nc1ccccc1OC | 102 |  | 
FC(F)(F)c1ccc(Nc2nc(Nc3ccc(C(F)(F)F)cc3)nc(Nc3ccc(C(F)(F)F)cc3)n2)cc1 | 100 | inactive | 
COc1cccc(Nc2nccnc2Nc2cccc(OC)c2)c1 | 101 |  | 
FC(F)(F)c1cccc(Nc2nc(Nc3cccc(C(F)(F)F)c3)nc(Nc3cccc(C(F)(F)F)c3)n2)c1 | 103 | inactive | 
Fc1cccc(Nc2nccnc2Nc2cccc(F)c2)c1 | 106 | inactive | 
Fc1cc(C(F)(F)F)ccc1Nc1nccnc1Nc1ccc(C(F)(F)F)cc1F | 164 |  | 8.5

Reference: ChEMBL document CHEMBL4627312, “Anilinopyrazines as potential mitochondrial uncouplers” (Bioorg Med Chem Lett, 2020)
